Measurements as given in ChEMBL document CHEMBL6109134, “Discovery of AMG 193, an MTA-Cooperative PRMT5 Inhibitor for the Treatment of MTAP-Deleted Cancers” (J Med Chem, 2025).

What was measured:
[1] = target: T1, Nuclear receptor subfamily 1 group I member 2 (Homo sapiens, UniProt O75469); experiment: Activation of human PXR in human HepG2 cells co-transfected with CYP3A4-luciferase at 10 uM incubated for 1 day relative to control; conditions: hepg2, 24 h
T1 sequence (O75469 whole entry): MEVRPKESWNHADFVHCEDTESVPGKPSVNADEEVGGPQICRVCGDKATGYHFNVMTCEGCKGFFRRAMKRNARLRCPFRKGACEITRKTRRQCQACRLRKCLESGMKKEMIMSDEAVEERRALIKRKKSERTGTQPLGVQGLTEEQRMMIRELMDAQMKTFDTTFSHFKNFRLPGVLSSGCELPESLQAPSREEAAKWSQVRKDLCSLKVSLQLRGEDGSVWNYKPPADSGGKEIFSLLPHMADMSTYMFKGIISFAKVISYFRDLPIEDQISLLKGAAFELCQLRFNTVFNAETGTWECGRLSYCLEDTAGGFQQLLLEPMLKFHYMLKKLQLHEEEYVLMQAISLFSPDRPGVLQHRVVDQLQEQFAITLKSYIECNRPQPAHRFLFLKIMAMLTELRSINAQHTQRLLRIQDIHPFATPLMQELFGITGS

HCT-116 [2] = experiment: Antiproliferative activity against MTAP-deleted human HCT-116 cells assessed as effect on cell viability incubated for 6 days by Celltiter-Glo luminescent cell viability assay; format: functional, cell-based; conditions: HCT-116, 144 h
CYP3A4 = CYP3A4 (Homo sapiens, UniProt P08684); experiment: in vitro; conditions: human liver microsomes, probe midazolam
Chain of CYP3A4 (P08684 whole entry): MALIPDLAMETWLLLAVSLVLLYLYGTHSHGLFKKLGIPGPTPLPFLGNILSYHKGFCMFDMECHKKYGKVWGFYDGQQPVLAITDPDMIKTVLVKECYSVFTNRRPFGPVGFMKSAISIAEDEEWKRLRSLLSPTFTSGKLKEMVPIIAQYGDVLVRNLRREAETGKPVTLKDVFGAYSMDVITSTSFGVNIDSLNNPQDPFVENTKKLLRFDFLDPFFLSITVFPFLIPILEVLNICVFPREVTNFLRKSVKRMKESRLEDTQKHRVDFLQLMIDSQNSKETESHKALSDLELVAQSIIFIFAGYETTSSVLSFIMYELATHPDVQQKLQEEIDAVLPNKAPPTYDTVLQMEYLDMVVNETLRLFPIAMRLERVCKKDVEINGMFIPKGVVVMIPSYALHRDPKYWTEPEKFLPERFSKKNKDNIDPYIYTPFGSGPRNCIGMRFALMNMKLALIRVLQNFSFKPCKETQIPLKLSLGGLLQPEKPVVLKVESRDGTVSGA

HCT-116 [3] = experiment: Antiproliferative activity against human HCT-116 cells harboring wildtype MTAP assessed as effect on cell viability incubated for 6 days by Celltiter-Glo luminescent cell viability assay; format: functional, cell-based; conditions: HCT-116, 144 h
PRMT5/MEP50 complex = PRMT5/MEP50 complex (Homo sapiens, UniProt O14744)
Chain of PRMT5/MEP50 complex (O14744 whole entry): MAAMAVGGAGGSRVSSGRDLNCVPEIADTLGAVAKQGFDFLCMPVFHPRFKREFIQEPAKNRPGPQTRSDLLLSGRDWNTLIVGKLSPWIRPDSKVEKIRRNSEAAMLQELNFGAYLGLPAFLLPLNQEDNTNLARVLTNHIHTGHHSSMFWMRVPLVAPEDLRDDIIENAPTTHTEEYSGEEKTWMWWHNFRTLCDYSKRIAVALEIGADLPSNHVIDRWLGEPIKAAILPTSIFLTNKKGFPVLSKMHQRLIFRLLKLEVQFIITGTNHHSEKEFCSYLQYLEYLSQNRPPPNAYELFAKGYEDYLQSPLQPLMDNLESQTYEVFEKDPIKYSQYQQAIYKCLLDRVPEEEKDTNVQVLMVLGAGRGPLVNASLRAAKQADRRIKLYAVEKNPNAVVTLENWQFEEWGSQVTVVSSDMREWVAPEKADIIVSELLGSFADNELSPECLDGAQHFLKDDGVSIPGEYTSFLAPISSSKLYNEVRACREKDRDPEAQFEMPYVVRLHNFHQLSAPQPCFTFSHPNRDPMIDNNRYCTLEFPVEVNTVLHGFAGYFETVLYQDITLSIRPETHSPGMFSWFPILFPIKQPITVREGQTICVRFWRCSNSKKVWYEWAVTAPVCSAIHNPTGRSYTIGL
Chain of PRMT5/MEP50 complex (Q9BQA1 whole entry, further chain): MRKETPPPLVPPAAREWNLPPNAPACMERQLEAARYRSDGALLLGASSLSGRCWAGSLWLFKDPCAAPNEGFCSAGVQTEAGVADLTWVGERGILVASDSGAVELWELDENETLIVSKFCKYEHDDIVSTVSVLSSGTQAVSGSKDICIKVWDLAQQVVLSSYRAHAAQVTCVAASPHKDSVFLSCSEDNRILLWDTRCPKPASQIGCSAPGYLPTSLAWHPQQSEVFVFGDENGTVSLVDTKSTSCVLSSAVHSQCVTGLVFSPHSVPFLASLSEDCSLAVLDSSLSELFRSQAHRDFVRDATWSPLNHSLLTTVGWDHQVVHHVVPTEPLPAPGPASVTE
Description: Inhibition of PRMT5/MEP50 (unknown origin) preincubated with compound for 24 hrs in presence of SAM and MTA followed by Histone H4 (1-21)-Lys(Biotin) peptide addition and measured after 2 hrs by MTase-Glo reagent based assay

[4] = Metabolic stability in mouse liver microsomes assessed as intrinsic clearance at 0.5 uM incubated for 40 mins in presence of NADPH; format: ADME, Microsome; conditions: read-out: CLH
[5] = Metabolic stability in human liver microsomes assessed as intrinsic clearance at 0.5 uM incubated for 40 mins in presence of NADPH; format: ADME, Microsome; conditions: read-out: CLH
human MDR1 (P-gp) = experiment: Efflux ratio of permeability across basolateral to apical side over apical to basolateral side in MDCK cells transfected with human MDR1 in absence of elacridar; conditions: dog

Row | SMILES | Activity [1] | IC50 (HCT-116 [2]) | inhibition at 30 min, 10 µM (CYP3A4) | IC50 (HCT-116 [3]) | Ki (PRMT5/MEP50 complex) | microsomal CLint at 0.5 µM [4] | microsomal CLint at 0.5 µM [5] | efflux ratio (human MDR1 (P-gp))
1 | C[C@H](c1ncccn1)N(Cc1ccc(C(F)(F)F)cn1)C(=O)c1ccc2nc(N)ccc2c1 | 17% | 482 nM | 21% | 743 nM | 0.6 nM | 62 µL/min/mg | < 14 µL/min/mg | 15
2 | C[C@H](c1ncccn1)N(Cc1ccc(C(F)(F)F)cn1)C(=O)c1ccc2nc(N)c(Cl)cc2c1 | 46% | 344 nM | 25% | 5110 nM | 0.2 nM | 105 µL/min/mg | < 14 µL/min/mg | 9
3 | Nc1nc2ccc(C(=O)N3CCCC3c3ccc(C(F)(F)F)cn3)cc2c2c1COC2 (centres undefined) | < 20% | > 50000 nM | < 20% | > 50000 nM | 184 nM | 72 µL/min/mg | 57 µL/min/mg | –
4 | C[C@H](c1ncccn1)N(Cc1ccc(C(F)(F)F)cn1)C(=O)c1cc2c3c(c(N)nc2cn1)COC3 | 9% | 202 nM | 4% | 1860 nM | 0.1 nM | 154 µL/min/mg | 67 µL/min/mg | 61
5 | Nc1nc2ccc(C(=O)N3CCOC[C@H]3c3ccc(C(F)(F)F)cn3)cc2c2c1COC2 | < 20% | 15500 nM | < 20% | > 50000 nM | 182 nM | 52 µL/min/mg | 61 µL/min/mg | –
6 | C[C@H](c1ncccn1)N(Cc1ccc(C(F)(F)F)cn1)C(=O)c1cnc2nc(N)c3c(c2c1)COC3 | 1% | 83 nM | < 1% | 409 nM | < 0.1 nM | 17 µL/min/mg | 22 µL/min/mg | –
7 | C[C@H](c1ncccn1)N(Cc1ccc(C(F)(F)F)cn1)C(=O)c1ccc2nc(N)c3c(c2c1)CCC3 | 73% | 14 nM | 8% | 129 nM | < 0.1 nM | 563 µL/min/mg | 274 µL/min/mg | 85
8 | Nc1nc2cnc(C(=O)N3CCC(F)(F)C[C@@H]3c3ccc(C(F)(F)F)cc3)cc2c2c1COC2 | < 20% | 1090 nM | < 20% | 16100 nM | 0.4 nM | 87 µL/min/mg | 50 µL/min/mg | 5
9 | Cc1cc2cc(C(=O)N(Cc3ccc(C(F)(F)F)cn3)[C@H](C)c3ncccn3)cnc2nc1N | 6% | 273 nM | 70% | 3490 nM | 0.1 nM | 14 µL/min/mg | 14 µL/min/mg | 63
10 | Nc1nc2ccc(C(=O)N3CCOCC3c3ccc(C(F)(F)F)cn3)cc2c2c1COC2 (racemic) | < 20% | 809 nM | < 20% | 14300 nM | 0.1 nM | 45 µL/min/mg | 37 µL/min/mg | –
11 | Nc1nc2ncc(C(=O)N3CCOCC3c3ccc(C(F)(F)F)cc3)cc2c2c1COC2 (centres undefined) | < 20% | 4440 nM | < 20% | > 10000 nM | 10.4 nM | 26 µL/min/mg | 17 µL/min/mg | 69
